Values quoted from earlier work, collected in patent US20120277693A1, “METHOD AND APPARATUS FOR IMPROVING THE APPEARANCE OF NAILS AFFECTED BY ONYCHOMYCOSIS THROUGH THE TOPICAL APPLICATION OF AN AQUEOUS SOLUTION CONTAINING BORIC ACID AND CAMPHOR OR OTHER TERPENES” (priority 2009, published 2012).

Key:
[1] = in boiling water; believed to be approximately; also printed as 280 g/L or 4.53 mole/L
fungal nail infection = settings: topical lacquer painted daily on infected nails

Row | SMILES | boric acid concentration, supersaturated [1] | patients in whom the treatment is effective (fungal nail infection)
1 | OB(O)O [boric acid] | approximately 28% | –
2 | Cc1cc(C2CCCCC2)n(O)c(=O)c1 [ciclopirox] | – | less than 10%
